{
  "source": "patent EP1932526A1",
  "about": "“Morin, a new inhibitor of microbial hyaluronate lyase” (Leibniz-Institut für Naturstoff-Forschung und …, priority 2006, dated 2008)",
  "origin": "cited, not measured here",
  "details": "species and route not given",
  "data": [
    {"smiles": "O=c1c(O)c(-c2ccc(O)cc2O)oc2cc(O)cc(O)c12", "note": "[morin, 2',3,4',5,7-pentahydroxyflavone]", "values": [
      {"measurement": "LD50 value", "result": 555, "unit": "mg/kg"}
    ]}
  ]
}
